The values below are quoted from earlier work in patent US20200093949A1, “COMBINED ODOR ABSORPTION AND INSECT REPELLENT COMPOSITIONS, TREATMENTS, AND METHODS OF USE” (priority 2014, published 2020).

The subject of this series is yellow fever mosquito. As to conditions: compared with DEET.

Take `CCC(C)OC(=O)N1CCCCC1CCO` (stereo not shown) [Picaridin, 2-(2-hydroxyethyl)-1-piperidine carboxylic acid 1-methylpropyl ester]: the “time of protection of guinea pigs from bites, post application” value is listed as “longer times”.
